Positions of bridges follow the written chain, without caps; N, C: chain ends. Residues, ends and D or L forms follow the SMILES beside them.

hNav1.7, sequence (Q15858 whole entry, looked up): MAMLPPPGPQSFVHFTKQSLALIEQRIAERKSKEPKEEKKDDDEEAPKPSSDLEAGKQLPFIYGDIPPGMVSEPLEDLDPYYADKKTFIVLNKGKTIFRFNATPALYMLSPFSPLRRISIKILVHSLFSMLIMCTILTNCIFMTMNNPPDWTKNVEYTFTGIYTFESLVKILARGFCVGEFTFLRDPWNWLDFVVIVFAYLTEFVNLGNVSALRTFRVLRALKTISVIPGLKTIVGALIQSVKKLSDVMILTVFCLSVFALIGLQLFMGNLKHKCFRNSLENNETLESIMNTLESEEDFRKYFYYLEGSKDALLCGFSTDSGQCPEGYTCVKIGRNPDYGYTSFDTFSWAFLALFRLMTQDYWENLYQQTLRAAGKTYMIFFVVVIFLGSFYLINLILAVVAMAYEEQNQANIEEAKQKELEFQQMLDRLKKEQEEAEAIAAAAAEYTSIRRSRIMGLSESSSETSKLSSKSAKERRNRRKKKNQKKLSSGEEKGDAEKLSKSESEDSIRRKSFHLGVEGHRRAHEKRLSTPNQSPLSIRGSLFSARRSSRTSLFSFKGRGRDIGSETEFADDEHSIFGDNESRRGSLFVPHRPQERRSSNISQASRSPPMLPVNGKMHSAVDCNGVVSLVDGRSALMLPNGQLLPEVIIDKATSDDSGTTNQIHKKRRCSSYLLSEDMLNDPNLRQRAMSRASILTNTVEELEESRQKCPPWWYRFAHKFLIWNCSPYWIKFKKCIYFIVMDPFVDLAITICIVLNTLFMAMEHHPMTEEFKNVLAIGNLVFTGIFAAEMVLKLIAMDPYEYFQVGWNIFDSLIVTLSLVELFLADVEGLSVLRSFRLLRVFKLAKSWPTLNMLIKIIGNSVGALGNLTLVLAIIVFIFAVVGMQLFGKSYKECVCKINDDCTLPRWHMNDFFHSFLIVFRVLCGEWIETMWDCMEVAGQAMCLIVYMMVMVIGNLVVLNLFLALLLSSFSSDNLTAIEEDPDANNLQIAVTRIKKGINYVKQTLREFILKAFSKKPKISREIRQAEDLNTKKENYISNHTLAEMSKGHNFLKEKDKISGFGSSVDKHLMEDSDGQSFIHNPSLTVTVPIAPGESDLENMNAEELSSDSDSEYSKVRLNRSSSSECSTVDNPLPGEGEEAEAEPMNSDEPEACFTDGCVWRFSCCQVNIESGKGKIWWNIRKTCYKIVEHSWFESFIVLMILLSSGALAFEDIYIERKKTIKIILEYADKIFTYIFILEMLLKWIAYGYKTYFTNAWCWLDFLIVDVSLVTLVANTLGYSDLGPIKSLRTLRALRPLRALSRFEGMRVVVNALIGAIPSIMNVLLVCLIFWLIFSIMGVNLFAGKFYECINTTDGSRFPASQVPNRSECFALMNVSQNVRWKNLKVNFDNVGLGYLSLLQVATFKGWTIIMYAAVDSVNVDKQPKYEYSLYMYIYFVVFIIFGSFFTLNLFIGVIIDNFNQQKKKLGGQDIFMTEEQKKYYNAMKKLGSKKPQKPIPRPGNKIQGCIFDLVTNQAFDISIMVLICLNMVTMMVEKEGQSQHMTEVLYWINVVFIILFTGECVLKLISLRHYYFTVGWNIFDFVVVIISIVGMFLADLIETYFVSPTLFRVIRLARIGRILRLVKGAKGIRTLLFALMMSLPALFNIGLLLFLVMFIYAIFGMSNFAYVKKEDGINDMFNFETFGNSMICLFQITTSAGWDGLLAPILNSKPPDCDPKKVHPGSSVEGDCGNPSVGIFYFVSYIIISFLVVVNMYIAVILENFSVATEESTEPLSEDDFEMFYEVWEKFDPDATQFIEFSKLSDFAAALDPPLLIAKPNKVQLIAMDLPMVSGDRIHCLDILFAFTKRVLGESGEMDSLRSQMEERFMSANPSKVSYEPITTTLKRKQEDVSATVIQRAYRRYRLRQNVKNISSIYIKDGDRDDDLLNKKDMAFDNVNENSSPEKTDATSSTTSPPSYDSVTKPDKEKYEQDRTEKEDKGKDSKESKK

The first assay concerns the target hNav1.7 (Homo sapiens, UniProt Q15858). As to the kind of experiment: cell-based. It is filed as cell-based. The settings on record: IonWorks Quattro, Use; read-out: IWQ Use Nav1.7. For orientation: The patch-clamp technique gives a direct electrical read-out from membranes.
For `CC[C@H](C)[C@@H]1NC(=O)[C@@H]2CSSC[C@@H]3NC(=O)[C@H](C)NC(=O)[C@H](CC(C)C)NC(=O)[C@H](CC(N)=O)NC(=O)[C@@H]4CCCN4C(=O)[C@H](CCCNC(=N)N)NC(=O)[C@H](CSSC[C@H](NC(=O)[C@@H](N)CC(=O)O)C(=O)N[C@@H](CC(C)C)C(=O)NCC(=O)N[C@@H](Cc4ccccc4)C(=O)N[C@@H](CCSC)C(=O)N[C@@H](CCCNC(=N)N)C(=O)N[C@@H](CCCCN)C(=O)N2)NC(=O)[C@H](CSSC[C@@H](C(=O)N[C@@H](CCCCN)C(=O)N[C@@H](Cc2ccc(O)cc2)C(=O)N[C@H](C(=O)N[C@@H](Cc2ccccc2)C(N)=O)C(C)C)NC(=O)[C@H](Cc2c[nH]c4ccccc24)NC(=O)[C@H](CCCCN)NC(=O)[C@H](Cc2c[nH]cn2)NC(=O)[C@H]([C@@H](C)O)NC(=O)[C@H](CCCNC(=N)N)NC(=O)[C@H](CO)NC3=O)NC(=O)[C@H](CCCCN)NC(=O)[C@H](CC(=O)O)NC(=O)[C@H](CC(N)=O)NC(=O)[C@H](CC(=O)O)NC(=O)[C@@H]2CCCN2C1=O` [compound 8] (H-DCLGFMRKCIPDNDKCCRPNLACSRTHKWCKYVF-NH2; disulfide 2-17, 9-23, 16-30), the IC50 amounted to 380 nM.

As for `CSCC[C@@H]1NC(=O)[C@H](Cc2ccccc2)NC(=O)CNC(=O)[C@H](CC(C)C)NC(=O)[C@@H](NC(=O)[C@@H](N)CC(=O)O)CSSC[C@@H]2NC(=O)[C@@H]3CSSC[C@@H](C(=O)N[C@@H](CCCCN)C(=O)N[C@@H](Cc4ccc(O)cc4)C(=O)N[C@H](C(=O)N[C@@H](Cc4ccccc4)C(N)=O)C(C)C)NC(=O)[C@H](Cc4c[nH]c5ccccc45)NC(=O)[C@H](CCCCN)NC(=O)[C@H](Cc4c[nH]cn4)NC(=O)[C@H]([C@@H](C)O)NC(=O)[C@H](CCCNC(=N)N)NC(=O)[C@H](CO)NC(=O)[C@H](CSSC[C@H](NC(=O)[C@H](CCCCN)NC(=O)[C@H](CCCNC(=N)N)NC1=O)C(=O)N[C@@H](C)C(=O)N1CCC[C@H]1C(=O)N[C@@H](CC(=O)O)C(=O)N[C@@H](CC(N)=O)C(=O)N[C@@H](CC(=O)O)C(=O)N[C@@H](CCCCN)C(=O)N3)NC(=O)[C@H](C(C)C)NC(=O)[C@H](CC(C)C)NC(=O)[C@H](CC(N)=O)NC(=O)[C@@H]1CCCN1C(=O)[C@H](CCCNC(=N)N)NC2=O` [compound 45] (H-DCLGFMRKCAPDNDKCCRPNLVCSRTHKWCKYVF-NH2; disulfide 2-17, 9-23, 16-30), the IC50 was determined as 210 nM.

For `CC[C@H](C)[C@@H]1NC(=O)[C@@H]2CSSC[C@@H]3NC(=O)[C@H](C(C)C)NC(=O)[C@H](CC(C)C)NC(=O)[C@H](CC(N)=O)NC(=O)[C@@H]4CCCN4C(=O)[C@H](CCCNC(=N)N)NC(=O)[C@H](CSSC[C@H](NC(=O)[C@@H](N)CC(=O)O)C(=O)N[C@@H](CC(C)C)C(=O)NCC(=O)N[C@@H](Cc4ccccc4)C(=O)N[C@@H](CCSC)C(=O)N[C@@H](CCCNC(=N)N)C(=O)N[C@@H](CCCCN)C(=O)N2)NC(=O)[C@H](CSSC[C@@H](C(=O)N[C@@H](CCCCN)C(=O)N[C@@H](Cc2ccc(O)cc2)C(=O)N[C@H](C(=O)N[C@@H](Cc2ccccc2)C(N)=O)C(C)C)NC(=O)[C@H](Cc2c[nH]c4ccccc24)NC(=O)[C@H](CCCCN)NC(=O)[C@H](Cc2c[nH]cn2)NC(=O)[C@H]([C@@H](C)O)NC(=O)[C@H](CCCNC(=N)N)NC(=O)[C@H](CO)NC3=O)NC(=O)[C@H](CCCCN)NC(=O)[C@H](CC(=O)O)NC(=O)[C@H](CCCCN)NC(=O)[C@H](CC(=O)O)NC(=O)[C@@H]2CCCN2C1=O` [compound 48] (H-DCLGFMRKCIPDKDKCCRPNLVCSRTHKWCKYVF-NH2; disulfide 2-17, 9-23, 16-30), the IC50 worked out at 210 nM.

Take `CC[C@H](C)[C@@H]1NC(=O)[C@@H]2CSSC[C@@H]3NC(=O)[C@H](C(C)C)NC(=O)[C@H](CC(C)C)NC(=O)[C@H](CC(N)=O)NC(=O)[C@@H]4CCCN4C(=O)[C@H](CCCNC(=N)N)NC(=O)[C@H](CSSC[C@H](NC(=O)[C@@H](N)CC(=O)O)C(=O)N[C@@H](CC(C)C)C(=O)NCC(=O)N[C@@H](Cc4ccccc4)C(=O)N[C@@H](CCSC)C(=O)N[C@@H](CCCNC(=N)N)C(=O)N[C@@H](CCCCN)C(=O)N2)NC(=O)[C@H](CSSC[C@@H](C(=O)N[C@@H](CCCCN)C(=O)N[C@@H](Cc2ccc(O)cc2)C(=O)N[C@H](C(=O)N[C@@H](Cc2ccccc2)C(N)=O)C(C)C)NC(=O)[C@H](Cc2c[nH]c4ccccc24)NC(=O)[C@H](CCCCN)NC(=O)[C@H](Cc2c[nH]cn2)NC(=O)[C@H]([C@@H](C)O)NC(=O)[C@H](CCCCN)NC(=O)[C@H](CO)NC3=O)NC(=O)[C@H](CCCCN)NC(=O)[C@H](CC(=O)O)NC(=O)[C@H](CC(N)=O)NC(=O)[C@H](CC(=O)O)NC(=O)[C@@H]2CCCN2C1=O` [compound 53] (H-DCLGFMRKCIPDNDKCCRPNLVCSKTHKWCKYVF-NH2; disulfide 2-17, 9-23, 16-30): the IC50 came out at 380 nM.

The same assay, now with this note: read-out: IWQ Use Nav1.7.
Take `CC[C@H](C)[C@@H]1NC(=O)[C@@H]2CSSC[C@@H]3NC(=O)[C@H](C(C)C)NC(=O)[C@H](CC(C)C)NC(=O)[C@H](CC(N)=O)NC(=O)[C@@H]4CCCN4C(=O)[C@H](CCCNC(=N)N)NC(=O)[C@H](CSSC[C@H](NC(=O)[C@@H](N)CC(=O)O)C(=O)N[C@@H](CC(C)C)C(=O)NCC(=O)N[C@@H](Cc4ccccc4)C(=O)N[C@@H](CCSC)C(=O)N[C@@H](CCCNC(=N)N)C(=O)N[C@@H](CCCCN)C(=O)N2)NC(=O)[C@H](CSSC[C@@H](C(=O)N[C@@H](CCCCN)C(=O)N[C@@H](C)C(=O)N[C@H](C(=O)N[C@@H](Cc2ccccc2)C(N)=O)C(C)C)NC(=O)[C@H](Cc2c[nH]c4ccccc24)NC(=O)[C@H](CCCCN)NC(=O)[C@H](Cc2c[nH]cn2)NC(=O)[C@H]([C@@H](C)O)NC(=O)[C@H](CCCNC(=N)N)NC(=O)[C@H](CO)NC3=O)NC(=O)[C@H](CCCCN)NC(=O)[C@H](CC(=O)O)NC(=O)[C@H](CC(N)=O)NC(=O)[C@H](CC(=O)O)NC(=O)[C@@H]2CCCN2C1=O` [compound 14] (H-DCLGFMRKCIPDNDKCCRPNLVCSRTHKWCKAVF-NH2; disulfide 2-17, 9-23, 16-30): the IC50 is 800 nM.

On to `CC[C@H](C)[C@@H]1NC(=O)[C@@H]2CSSC[C@@H]3NC(=O)[C@H](C(C)C)NC(=O)[C@H](CC(C)C)NC(=O)[C@H](CC(N)=O)NC(=O)[C@@H]4CCCN4C(=O)[C@H](CCCNC(=N)N)NC(=O)[C@H](CSSC[C@H](NC(=O)[C@@H](N)CC(=O)O)C(=O)N[C@@H](CC(C)C)C(=O)NCC(=O)N[C@@H](Cc4ccccc4)C(=O)N[C@@H](CCSC)C(=O)N[C@@H](CCCNC(=N)N)C(=O)N[C@@H](CCCCN)C(=O)N2)NC(=O)[C@H](CSSC[C@@H](C(=O)N[C@@H](CCCCN)C(=O)N[C@@H](Cc2ccc(O)cc2)C(=O)N[C@H](C(=O)N[C@@H](Cc2ccccc2)C(N)=O)C(C)C)NC(=O)[C@H](Cc2c[nH]c4ccccc24)NC(=O)[C@H](CCCCN)NC(=O)[C@H](Cc2c[nH]cn2)NC(=O)[C@H]([C@@H](C)O)NC(=O)[C@H](CCCNC(=N)N)NC(=O)[C@H](CO)NC3=O)NC(=O)[C@H](CCCCN)NC(=O)[C@H](CC(=O)O)NC(=O)[C@H](CC(N)=O)NC(=O)[C@H](CCCCN)NC(=O)[C@@H]2CCCN2C1=O` [compound 42] (H-DCLGFMRKCIPKNDKCCRPNLVCSRTHKWCKYVF-NH2; disulfide 2-17, 9-23, 16-30), for which the IC50 came out at 120 nM.

In the case of `CC[C@H](C)[C@@H]1NC(=O)[C@@H]2CSSC[C@@H]3NC(=O)[C@H](C(C)C)NC(=O)[C@H](CC(C)C)NC(=O)[C@H](CC(N)=O)NC(=O)[C@H](CCCCN)NC(=O)[C@H](CCCNC(=N)N)NC(=O)[C@H](CSSC[C@H](NC(=O)[C@@H](N)CC(=O)O)C(=O)N[C@@H](CC(C)C)C(=O)NCC(=O)N[C@@H](Cc4ccccc4)C(=O)N[C@@H](CCSC)C(=O)N[C@@H](CCCNC(=N)N)C(=O)N[C@@H](CCCCN)C(=O)N2)NC(=O)[C@H](CSSC[C@@H](C(=O)N[C@@H](CCCCN)C(=O)N[C@@H](Cc2ccc(O)cc2)C(=O)N[C@H](C(=O)N[C@@H](Cc2ccccc2)C(N)=O)C(C)C)NC(=O)[C@H](Cc2c[nH]c4ccccc24)NC(=O)[C@H](CCCCN)NC(=O)[C@H](Cc2c[nH]cn2)NC(=O)[C@H]([C@@H](C)O)NC(=O)[C@H](CCCNC(=N)N)NC(=O)[C@H](CO)NC3=O)NC(=O)[C@H](CCCCN)NC(=O)[C@H](CC(=O)O)NC(=O)[C@H](CC(N)=O)NC(=O)[C@H](CC(=O)O)NC(=O)[C@@H]2CCCN2C1=O` [compound 50] (H-DCLGFMRKCIPDNDKCCRKNLVCSRTHKWCKYVF-NH2; disulfide 2-17, 9-23, 16-30), the IC50 amounted to 120 nM.

On to `CC[C@H](C)[C@@H]1NC(=O)[C@@H]2CSSC[C@@H]3NC(=O)[C@H](C(C)C)NC(=O)[C@H](CC(C)C)NC(=O)[C@H](CC(N)=O)NC(=O)[C@@H]4CCCN4C(=O)[C@H](CCCNC(=N)N)NC(=O)[C@H](CSSC[C@H](NC(=O)[C@@H](N)CC(=O)O)C(=O)N[C@@H](CC(C)C)C(=O)NCC(=O)N[C@@H](Cc4ccccc4)C(=O)N[C@@H](CCSC)C(=O)N[C@@H](CCCNC(=N)N)C(=O)N[C@@H](CCCCN)C(=O)N2)NC(=O)[C@H](CSSC[C@@H](C(=O)N[C@@H](CCCCN)C(=O)N[C@@H](Cc2ccc(O)cc2)C(=O)N[C@H](C(=O)N[C@@H](Cc2ccccc2)C(N)=O)C(C)C)NC(=O)[C@H](Cc2c[nH]c4ccccc24)NC(=O)[C@H](CCCCN)NC(=O)[C@H](Cc2c[nH]cn2)NC(=O)[C@H]([C@@H](C)O)NC(=O)[C@H](CCCNC(=N)N)NC(=O)[C@H](CO)NC3=O)NC(=O)[C@H](CCCCN)NC(=O)[C@H](CC(=O)O)NC(=O)[C@H](CC(N)=O)NC(=O)[C@H](CCCNC(=N)N)NC(=O)[C@@H]2CCCN2C1=O` [compound 67] (H-DCLGFMRKCIPRNDKCCRPNLVCSRTHKWCKYVF-NH2; disulfide 2-17, 9-23, 16-30), for which the IC50 worked out at 110 nM.

(Values after US9340590B2 (priority 2011, dated 2016).)
